Columns and labels:
[1] = Plasma concentration in ICR mouse at 10 mg/kg administered intratracheally measured after 1 min by RP-HPLC analysis; type: ADME, organism-based; conditions: inhaled or intranasal
[2] = Plasma concentration in ICR mouse at 7.5 mg/kg, iv measured after 1 min by RP-HPLC analysis; type: ADME, organism-based

C[N+]1(C)[C@@H]2C[C@@H](OC(=O)C(O)(c3cccs3)c3cccs3)C[C@H]1[C@@H]1O[C@@H]12.[Br-]
concentration at 1 min [1]: 3000 ng/mL
concentration at 1 min [2]: 40000 ng/mL

— ChEMBL document CHEMBL4387754, “Chemical modification-mediated optimisation of bronchodilatory activity of mepenzolate, a muscarinic receptor antagonist with anti-inflammatory activity” (Bioorg Med Chem, 2019)
